Patent publication US11203636B2, “Treatment of existing left ventricular heart failure” (YALE UNIVERSITY, priority 2017, dated 2021)

Legend:
[1] = tested on: NKCC2, ENaC-beta, and NCC proteins in mouse M1 CCD cell line; assay: Expression of NKCC2, ENaC-beta and NCC in M1 CCD cells after treatment with IL-6 and/or Spironolactone (immunoblotting); type: cell-based; details: FIGS. 5A-5C
Experimental: (§1) The mouse M1 CCD cell line (American Type Culture Collection (ATCC), Cat #CRL-2038) was maintained the cell culture medium containing equal amount of DMEM (Sigma-Aldrich, Cat #D6046) and Han F12 (Sigma-Aldrich, Cat #11765-047), supplemented with 5% Fetal Bovine Serum (FBS), 1% Penicillin-Streptomycin (Thermo Fisher Scientific, Cat #15140-122), 1% Insulin-Transferrin-Selenium (Thermo Fisher Scientific, Cat #51500-056) and 100 nM Dexamethasone (Sigma-Aldrich, Cat #D4902-100MG).
(§2) M1 CCD cells were seeded at 1 million/well in 6-well plate in the cell culture medium, and incubated overnight in a 37° C., 5% CO2 incubator on Day 0. The cell culture medium was changed to DMEM/F12 serum-free medium on Day 1 and the cells were incubated overnight in a 37° C., 5% CO2 incubator. On Day 2, the serum-free medium was removed and the cell culture medium was added to each well. Spironolactone (Selleckchem, Cat #54054) was added at the final concentration of 1 μM or 100 μM 10 min before the addition of IL-6 (Sigma-Aldrich, Cat #SRP3096-20UG) at the final concentration of 10 ng/mL, 100 ng/mL, or 500 ng/mL. A control well without Spironolactone or IL-6 was included. […] The sample were analyzed by immunoblotting using anti-NKCC2 antibody (Millipore, Cat #AB3562P), anti-ENaC-beta antibody (Millipore, Cat #AB3532P), or anti-NCC antibody (Millipore, Cat #AB3553) and the protein expression was quantified. […]

[2] = tested on: NKCC2, ENaC-beta, and NCC proteins in mouse M1 CCD cell line; assay: Expression of NKCC2, ENaC-beta and NCC in M1 CCD cells after treatment with IL-6 and/or Ruxolitinib (immunoblotting); type: cell-based; details: IL-6 10, 100 or 500 ng/mL, 24 hours, FIGS. 4A-4C
Experimental: as §1
as §2, with “Ruxolitinib” for “Spironolactone”, “#51378)” for “#54054)”

Compound	effect of Spironolactone on the IL-6 effect on ion transporter proteins (NKCC2, ENaC-beta, NCC) ([1]; Spironolactone 1 μM or 100 μM added 10 min before IL-6, 24 hours)	expression of NKCC2, ENaC-beta, and NCC after treatment of IL-6 ([1]; IL-6 10, 100 or 500 ng/mL, 24 hours, immunoblotting)	expression of NKCC2, ENaC-beta, and NCC after treatment of IL-6 [2]
CC(=O)S[C@@H]1CC2=CC(=O)CC[C@]2(C)[C@H]2CC[C@@]3(C)[C@@H](CC[C@@]34CCC(=O)O4)[C@H]12 [Spironolactone]	blocked the effect of IL-6 on the ion transporter proteins		
IL-6: pro-inflammatory cytokine added to cells (Sigma-Aldrich, Cat #SRP3096-20UG)		increased the expression of NKCC2, ENaC-beta, and NCC	increased the expression of NKCC2, ENaC-beta, and NCC
